How the values were obtained:
[1] = tested on: HMVECs; assay: Endothelial cell migration assay (modified Boyden chamber); format: cell-based, human
Method: Endothelial Cell Migration Assay-The endothelial cell migration assay was performed as described in, […], Methods Mol Med. 78: 337-47 (2003), incorporated herein by reference. Briefly, HMVECs were starved overnight in media containing 0.1% bovine serum albumin (BSA), harvested, resuspended in DME with 0.1% BSA, plated on the bottom side of a modified Boyden chamber (Nucleopore Corporation, MD), and allowed to attach in the inverted chamber for 2 hours at 37° C. The chamber was then re-inverted, test substances added to the wells of the upper chamber and cells were allowed to migrate for four hours at 37° C. Membranes were recovered, fixed and stained and the number of cells that had migrated to the upper chamber per ten high power fields was counted. Background migration in DME+0.1% BSA was subtracted and the data reported as the number of cells migrated per 10 high power fields (400×). VEGF (R&D Systems, Minneapolis, Minn.) was used as a positive control at a concentration of 100 pg/ml.

[2] = tested on: age-related macular degeneration; settings: 1-2 drops of 0.1% w/v aqueous ophthalmic composition, each eye twice daily
From the text: A patient complaining of vision loss is diagnosed with age-related macular degeneration.

[3] = tested on: HMVECs; assay: Cell morphology / actin stress fiber staining; format: cell-based, human; settings: treated or lentivirus-transduced
[4] = tested on: mouse cornea
Method: The effect of 8CPT-2Me-cAMP treatment on FGF-induced angiogenesis was investigated using the mouse corneal assay. Mice were injected with either 0.6 or 6 μmoles of 8CPT-2Me-cAMP, concentrations similar to those used for the skin implant scaffolds.

[5] = tested on: endothelial cells; settings: 0.3 mM, low serum conditions, data not shown
[6] = tested on: HMVECs in scaffolds implanted in SCID mice; assay: SCID mouse model of human angiogenesis, in vivo microvessel density; settings: daily local injection for 5 days
From the text: A further assay for evaluating inhibition of tubule formation suitable for use in the presently described methods is an in vivo assay of microvessel density. In this regard, functional human microvessels can be engineered in SCID mice by implanting human dermal microvascular endothelial cells (HMVECs) seeded in biodegradable scaffolds, as described by Nor J E, et al., Lab Invest 81: 453-63 (2001), incorporated herein by reference. These cells organize into microvessels that anastomose with the host vasculature and transport mouse blood cells. Differences in vessel density are quantified post-euthanization by standard immunohistochemical techniques using, for example, anti-human CD31, and counting the number of CD31-positive vessels in a set number of random fields.
SCID Mouse Model of Human Angiogenesis—Functional human microvessels were induced in severe combined immunodeficient (SCID) mice (CB-17 SCID; Taconic, Germantown, N.Y., USA). […]
Determination of In Vivo Microvessel Densities—Formalin fixed, paraffin-embedded implants were generated in order to quantify differences in vessel densities in the tumors of the treated and untreated animals. […] The number of CD31+blood vessels was counted in 10 random fields per sponge using an optical microscope (×400).

[7] = tested on: Rap1; format: cell-based, human; settings: HMVECs
Method: Briefly, cells are lysed in a suitable lysis buffer and clarified by centrifugation. Clarified lysates are incubated with a GST fusion protein containing the Rap-1 binding domain of Ral-GDS coupled to glutathione-sepharose beads. Proteins bound to the beads are then extracted and resolved by sodium dodecyl sulfate-polyacrylamide gel electrophoresis (SDS-PAGE) and subjected to western blot analysis using anti-Rap-1 antibodies.
Rap1 pull down assay—HMVECs were grown to subconfluent in 100 mm plates, starved in EBM2 medium plus 0.1% BSA over night and treated as indicated.

[8] = tested on: CREB, a substrate of PKA; assay: Phospho-CREB western analysis; settings: HMVEC lysates; forskolin given with IBMX per FIG. 5B legend
From the text: Cell lysate extraction and western analysis—Cell lysates were collected, resolved by SDS-PAGE, and analyzed by western blot using anti-Phospho-CREB (Ser133) antibody or anti-tubulin antibody at a dilution of 1:1000 or anti-Rap1 at a dilution of 1:500, using standard methods as described in Kuo, W L et al., J. Biol. Chem. 279: 23073-81 (2004), incorporated herein by reference.

SMILES: C[C@@H](N)[C@H]1CC[C@H](C(=O)Nc2ccncc2)CC1 [Y-27632]
- effect on VEGF-induced chemotaxis [1]: dose-dependent inhibition

SMILES: O=C(Nc1ncnc2c1ncn2[C@@H]1O[C@@H]2COP(=O)(O)O[C@H]2[C@H]1O)c1ccccc1 [6-Benz-cAMP, N^6-Benzoyladenosine-3′,5′cyclic monophosphate]
- effect on VEGF-induced chemotaxis [1]: no effect

SMILES: CO[C@@H]1[C@@H]2OP(=O)(O)OC[C@H]2O[C@H]1n1c(Sc2ccc(Cl)cc2)nc2c(N)ncnc21 [8CPT-2Me-cAMP, 8-(4-chlorophenylthio)-2′-O-methyladenosine-3′,5′cyclic monophosophate]
- ocular function [2]: noticeable improvement
- cell morphology [3]: this effect could be mimicked
- average area of vascularization relative to control mice ([4]; 0.6 μmoles): about half
- mice with detectable vascularization ([4]; 0.6 μmoles, control 6 out of 6): 6 out of 8
- FGF-induced angiogenesis ([4]; 6 μmoles (higher dose)): effectively suppressed
- mice showing angiogenesis ([4]; 6 μmoles, control 6 out of 6): 1 out of 10
- apoptotic induction [5]: did not detect apoptotic induction
- inhibition of number of microvessels ([6]; 0.03 μmoles per implant): roughly 50%
- inhibition of number of microvessels ([6]; 0.3 μmoles per implant): greater than 90%
- Rap1 activation (GTP-bound Rap1) [7]: robust stimulator
- concentration giving complete inhibition of VEGF-stimulated migration [1]: 2.5 µM
- migration in the absence of VEGF (nonspecific/background migration) ([1]; no VEGF): no suppression
- CREB phosphorylation [8]: did not induce significant CREB phosphorylation
